The structures appear in SMILES notation. Marks after values point to notes of the source that are not given here.

One assay has as its target T1, HMG-CoA reductase (Homo sapiens, UniProt P04035).
T1 sequence (P04035 426-888 limits assumed): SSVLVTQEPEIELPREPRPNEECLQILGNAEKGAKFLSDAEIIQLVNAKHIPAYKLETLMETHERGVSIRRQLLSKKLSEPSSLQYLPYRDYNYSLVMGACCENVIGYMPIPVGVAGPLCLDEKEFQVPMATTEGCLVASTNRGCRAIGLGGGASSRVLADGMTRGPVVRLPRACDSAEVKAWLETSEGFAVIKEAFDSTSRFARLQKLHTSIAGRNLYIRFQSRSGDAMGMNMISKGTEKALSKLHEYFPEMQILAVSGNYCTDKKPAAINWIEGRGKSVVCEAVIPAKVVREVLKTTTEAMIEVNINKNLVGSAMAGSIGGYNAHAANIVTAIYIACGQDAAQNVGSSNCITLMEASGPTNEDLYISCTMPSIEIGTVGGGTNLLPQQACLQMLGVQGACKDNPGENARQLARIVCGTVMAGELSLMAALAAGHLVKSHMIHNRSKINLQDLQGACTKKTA
The assay is described as follows: HMG-CoA reductase inhibitory activity test in vitro. It is filed as biochemical.

The target in assay [1] is T2, protein tyrosine phosphatase 1B (PTP-1B) (Homo sapiens, UniProt P18031).
T2 sequence (P18031 1-435): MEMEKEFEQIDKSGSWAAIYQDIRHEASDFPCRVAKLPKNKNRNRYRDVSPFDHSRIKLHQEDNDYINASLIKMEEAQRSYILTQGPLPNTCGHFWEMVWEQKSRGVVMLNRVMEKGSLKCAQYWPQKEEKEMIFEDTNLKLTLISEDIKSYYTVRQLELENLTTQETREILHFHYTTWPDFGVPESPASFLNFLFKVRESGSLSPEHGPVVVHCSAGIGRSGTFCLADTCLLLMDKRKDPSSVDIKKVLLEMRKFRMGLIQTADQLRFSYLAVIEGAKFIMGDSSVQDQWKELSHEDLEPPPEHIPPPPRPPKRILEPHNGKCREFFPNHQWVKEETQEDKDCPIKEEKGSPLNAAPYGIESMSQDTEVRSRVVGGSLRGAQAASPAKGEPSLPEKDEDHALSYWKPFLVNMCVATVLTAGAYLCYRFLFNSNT
The assay is described as follows: PTP-1B inhibitory activity test in vitro. The class given is biochemical. The essentials:
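Compound was preincubated 10 min at room temperature with 170 μg/mL PTP-1B solution, then 1 mM pNPP substrate was added and incubated 37 °C for 30 min. Reaction stopped with 3M NaOH; absorbance read at […], with blank and compound-background controls.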

For assay [2], the system named is hyperglycemia mice induced by alloxan. Briefly: blood sugar of hyperglycemia mice induced by alloxan. It is filed as in vivo, Kunming species mice. The conditions noted are these: for effect on blood sugar level of hyperglycemic mice (in words): 50 mg/kg. Here is the method: Blood glucose determination kit (batch number 20140403) is purchased from Nanjing Jiancheng Bioengineering Institute. Methods: after being acclimatized for 1 week, 10 randomly selected Kunming species male mice of SPF level of 20±2 g are used as control group, while the other 50 mice are given alloxan to make model by intraperitoneal injection according to body weight 220 mg/kg.

Assay [3] concerns hyperglycemia KK-A^y mice. Briefly: liver tissue section of hyperglycemia KK-A^y mice (HE). It is filed as in vivo. Particulars: FIG. 1, 10 and 20 mg/kg. On the procedure:
Detect the fasting glucose of male KK-A^y mice, which are 6-8 weeks with the weight of 28-32 g, and divide them into different groups according to the blood sugar level and body weight: (2) model control group, (3) which is administered by compound S13 with the dose of 1 mg/kg, (4) which is administered by compound S13 with the dose of 5 mg/kg, (5) which is administered by compound S13 with the dose of 10 mg/kg, (6) which is administered by compound S13 with the dose of 20 mg/kg, (7) which is administered by compound S28 with the dose of 1 mg/kg, (8) which is administered by compound S28 with the dose of 5 mg/kg, (9) which is administered by compound S28 with the dose of 10 mg/kg, (10) which is administered by compound S28 with the dose of 20 mg/kg, (11) which is administered by metformin with the dose of 8 g/kg, (12) which is administered by compound S13 with the dose of 2.5 mg/kg and metformin with the dose of 4 g/kg, (13) which is administered by compound S13 with the dose of 5 mg/kg and metformin with the dose of 4 g/kg, (14) which is administered by compound S28 with the dose of 2.5 mg/kg and metformin with the dose of […], (15) which is administered by compound S28 with the dose of 5 mg/kg and metformin with the dose of […]. Each group has 8 mice, and is administrated successively for 3 weeks. Model control group is given with equal amounts of 0.5% CMC-Na. […]

One may read the IC50 as the concentration needed to halve the response being measured. A lower IC50 goes with greater potency in that assay. Turning to `CC(C)=CCC/C(C)=C/CCC1=C[C@H](c2cc(O)ccc2O)OC1=O` [S13, (R,E)-5-(2,5-dihydroxyphenyl)-3-(4,8-dimethylnona-3,7-dien-1-yl)furan-2(5H)-one], the IC50 is 7.9 µM at HMG-CoA reductase and 8.9 µM in assay [1]. The “blood sugar after administration” value in assay [2] (50 mg/kg intragastric, 10 days, fasted 10 hours) is given as 5.11** mmol/L. In addition, in assay [2] (10 days), the “effect on blood sugar level of hyperglycemic mice (in words)” value is “significantly decrease the blood sugar level of hyperglycemic mice”. Moreover, the “blood sugar before administration” value in assay [2] (before administration) is 14.50 mmol/L. For the same compound, in assay [3], the “fat vacuole in hepatocyte (liver tissue section, HE)” value was “almost disappear”.

Turning to `CC(C)=CCC/C(C)=C/CCC1=C[C@@H](c2cc(O)ccc2O)OC1=O` [S28, (S,E)-5-(2,5-dihydroxyphenyl)-3-(4,8-dimethylnona-3,7-dien-1-yl)furan-2(5H)-one], the concentration for half-maximal inhibition (IC50) against HMG-CoA reductase came out at 8.9 µM; in assay [1] it was 9.5 µM. Besides, the “effect on blood sugar level of hyperglycemic mice (in words)” value in assay [2] (10 days) is “significantly decrease the blood sugar level of hyperglycemic mice”. The “fat vacuole in hepatocyte (liver tissue section, HE)” value in assay [3] is “almost disappear”.

The values above are taken from patent US10441562B2, “Aromatic farnesyl compound and application thereof” (INSTITUTE OF MICROBIOLOGY, CHINESE ACADEMY OF SCIENCES, priority 2015, dated 2019).
